In patent US10815274B2, “Immunogenic WT-1 peptides and methods of use thereof” (Memorial Sloan Kettering Cancer Center, priority 2012, dated 2020):
Where a SMILES comes first, the peptide text is derived from it.

How the values were obtained:
[1] = system: WT1- autologous APC; assay: Cr51 release assay, cytotoxic CTL response vs unmodified autologous APC; format: cell-based, human; conditions: 50:1 E:T
[2] = system: WT1 peptide loaded autologous APC; assay: Cr51 release assay, cytotoxic CTL response vs peptide loaded autologous APC; format: cell-based, human; conditions: 50:1 E:T
[3] = system: WT1- leukemia; assay: Cr51 release assay, cytotoxic CTL response vs WT1- leukemia; format: cell-based, human; conditions: 50:1 E:T
Excerpt: (§1) Twenty-four primary leukemic cells and 1 leukemic cell line were characterized for their expression of WT1 by intracellular FACS staining using murine anti-human WT1 monoclonal antibodies (Neomarkers, Fremont, Calif.) as previously described (32,38) The WT1+ leukemias included blast cells from 11 primary AMLs, 3 primary ALLs and 1B-cell precursor ALL cell line. Ten WT1-leukemias, were used as controls, and included 3 B-cell precursor ALLs and 7 AMLs.

[4] = system: WT1+ leukemia; assay: Cr51 release assay, cytotoxic CTL response vs WT1+ leukemia expressing restricting HLA allele; format: cell-based, human; conditions: 50:1 E:T
Excerpt: as §1
PHA blasts were not available from every patient that provided leukemia blasts for this study.

[5] = system: WT1- allo APC with restricting HLA allele; assay: Cr51 release assay, cytotoxic CTL response vs unloaded allogeneic APC sharing restricting HLA allele; format: cell-based, human; conditions: 50:1 E:T
[6] = system: WT1+ allo APC with restricting HLA allele loaded with WT1 peptide; assay: Cr51 release assay, cytotoxic CTL response vs peptide loaded allogeneic APC sharing restricting HLA allele (HLA restriction); conditions: for Cytotoxic CTL response, % vs WT1+ allo APC with restricting HLA allele loaded with WT1 peptide: 50:1 E:T

## CC(C)C[C@H](N)C(=O)N[C@@H](CC(=O)O)C(=O)N[C@@H](Cc1ccccc1)C(=O)N[C@@H](C)C(=O)N1CCC[C@H]1C(=O)N1CCC[C@H]1C(=O)NCC(=O)N[C@@H](C)C(=O)N[C@@H](CO)C(=O)O [SEQ ID NO: 155] (H-LDFAPPGAS-OH; N-terminus and C-terminus assumed)
[1]; HLA allele A0201
  Cytotoxic CTL response, % vs WT1- autologous APC: 0%
[2]; HLA allele A0201
  Cytotoxic CTL response, % vs WT1 peptide loaded autologous APC: 73%
[3]; HLA allele A0201
  Cytotoxic CTL response, % vs WT1- leukemia: 0%
[4]; HLA allele A0201
  Cytotoxic CTL response, % vs WT1+ leukemia: 40%
[5]; HLA allele A0201
  Cytotoxic CTL response, % vs WT1- allo APC with restricting HLA allele: 1%
[6]; HLA A0201
  Cytotoxicity of T-cells restricted by HLA A0201 against loaded targets: able to lyse
[6]; HLA allele A0201
  Cytotoxic CTL response, % vs WT1+ allo APC with restricting HLA allele loaded with WT1 peptide: 62%

## CC(C)C[C@H](NC(=O)[C@@H](NC(=O)[C@H](C)NC(=O)CNC(=O)[C@H](CC(C)C)NC(=O)[C@@H](N)CC(N)=O)[C@@H](C)O)C(=O)N[C@@H](CCCCN)C(=O)NCC(=O)N[C@H](C(=O)O)C(C)C [SEQ ID NO: 175] (H-NLGATLKGV-OH; N-terminus and C-terminus assumed)
[1]; HLA allele A0101
  Cytotoxic CTL response, % vs WT1- autologous APC: 2%
[1]; HLA allele A0201
  Cytotoxic CTL response, % vs WT1- autologous APC: 1%
[2]; HLA allele A0101
  Cytotoxic CTL response, % vs WT1 peptide loaded autologous APC: 19%
[2]; HLA allele A0201
  Cytotoxic CTL response, % vs WT1 peptide loaded autologous APC: 18%
[3]; HLA allele A0201
  Cytotoxic CTL response, % vs WT1- leukemia: 2%
[4]; HLA allele A0201
  Cytotoxic CTL response, % vs WT1+ leukemia: 19%
[5]; HLA allele A0101
  Cytotoxic CTL response, % vs WT1- allo APC with restricting HLA allele: 1%
[5]; HLA allele A0201
  Cytotoxic CTL response, % vs WT1- allo APC with restricting HLA allele: 1%
[6]; HLA allele A0101
  Cytotoxic CTL response, % vs WT1+ allo APC with restricting HLA allele loaded with WT1 peptide: 17%
[6]; HLA allele A0201
  Cytotoxic CTL response, % vs WT1+ allo APC with restricting HLA allele loaded with WT1 peptide: 14%

## C[C@H](NC(=O)[C@@H]1CCCN1)C(=O)N1CCC[C@H]1C(=O)N1CCC[C@H]1C(=O)N1CCC[C@H]1C(=O)N1CCC[C@H]1C(=O)N1CCC[C@H]1C(=O)N1CCC[C@H]1C(=O)N1CCC[C@H]1C(=O)O [SEQ ID NO: 158] (H-PAPPPPPPP-OH; N-terminus and C-terminus assumed)
[1]; HLA allele A0201
  Cytotoxic CTL response, % vs WT1- autologous APC: 2%
[2]; HLA allele A0201
  Cytotoxic CTL response, % vs WT1 peptide loaded autologous APC: 40%
[3]; HLA allele A0201
  Cytotoxic CTL response, % vs WT1- leukemia: 0%
[4]; HLA allele A0201
  Cytotoxic CTL response, % vs WT1+ leukemia: 0%
[5]; HLA allele A0201
  Cytotoxic CTL response, % vs WT1- allo APC with restricting HLA allele: 1%
[6]; HLA allele A0201
  Cytotoxic CTL response, % vs WT1+ allo APC with restricting HLA allele loaded with WT1 peptide: 18%

## CC(C)C[C@H](NC(=O)[C@H](CC(C)C)NC(=O)[C@H](CC(C)C)NC(=O)[C@H](C)NC(=O)[C@H](CCC(N)=O)NC(=O)[C@H](CO)NC(=O)CNC(=O)[C@@H](NC(=O)[C@@H](N)CS)[C@@H](C)O)C(=O)O [SEQ ID NO: 167] (H-CTGSQALLL-OH; N-terminus and C-terminus assumed)
[1]; HLA allele A0101
  Cytotoxic CTL response, % vs WT1- autologous APC: 0%
[2]; HLA allele A0101
  Cytotoxic CTL response, % vs WT1 peptide loaded autologous APC: 21%
[3]; HLA allele A0101
  Cytotoxic CTL response, % vs WT1- leukemia: 3%
[4]; HLA allele A0101
  Cytotoxic CTL response, % vs WT1+ leukemia: 33%
[5]; HLA allele A0101
  Cytotoxic CTL response, % vs WT1- allo APC with restricting HLA allele: 0%
[6]; HLA allele A0101
  Cytotoxic CTL response, % vs WT1+ allo APC with restricting HLA allele loaded with WT1 peptide: 26%

## CSCC[C@H](NC(=O)[C@@H]1CCCN1C(=O)[C@H](CC(=O)O)NC(=O)[C@H](CCC(=O)O)NC(=O)[C@H](Cc1c[nH]cn1)NC(=O)[C@H](CCCCN)NC(=O)[C@H](Cc1ccccc1)NC(=O)[C@H](CO)NC(=O)[C@@H](N)Cc1c[nH]cn1)C(=O)O [SEQ ID NO: 165] (H-HSFKHEDPM-OH; N-terminus and C-terminus assumed)
[1]; HLA allele B3501
  Cytotoxic CTL response, % vs WT1- autologous APC: 0%
[2]; HLA allele B3501
  Cytotoxic CTL response, % vs WT1 peptide loaded autologous APC: 50%
[3]; HLA allele B3501
  Cytotoxic CTL response, % vs WT1- leukemia: 5%
[4]; HLA allele B3501
  Cytotoxic CTL response, % vs WT1+ leukemia: 45%
[5]; HLA allele B3501
  Cytotoxic CTL response, % vs WT1- allo APC with restricting HLA allele: 3%
[6]; HLA allele B3501
  Cytotoxic CTL response, % vs WT1+ allo APC with restricting HLA allele loaded with WT1 peptide: 63%
[6]; peptide loaded autologous targets and targets expressing HLA-B3501, not targets sharing other alleles
  Cytotoxic activity against panel of allogeneic CAMs loaded with peptide, each sharing one HLA allele: selectively lysed

## CSCC[C@H](NC(=O)[C@H](CCC(N)=O)NC(=O)[C@H](CC(N)=O)NC(=O)[C@@H](N)Cc1c[nH]c2ccccc12)C(=O)N[C@@H](CC(N)=O)C(=O)N[C@@H](CC(C)C)C(=O)NCC(=O)N[C@@H](C)C(=O)N[C@H](C(=O)N[C@@H](CC(C)C)C(=O)N[C@@H](CCCCN)C(=O)O)[C@@H](C)O [SEQ ID NO: 173] (H-WNQMNLGATLK-OH; N-terminus and C-terminus assumed)
[1]; HLA allele DRB11104
  Cytotoxic CTL response, % vs WT1- autologous APC: 0%
[2]; HLA allele DRB11104
  Cytotoxic CTL response, % vs WT1 peptide loaded autologous APC: 8%
[3]; HLA allele DRB11104
  Cytotoxic CTL response, % vs WT1- leukemia: 0%
[4]; HLA allele DRB11104
  Cytotoxic CTL response, % vs WT1+ leukemia: 0%
[5]; HLA allele DRB11104
  Cytotoxic CTL response, % vs WT1- allo APC with restricting HLA allele: 2%
[6]; HLA allele DRB11104
  Cytotoxic CTL response, % vs WT1+ allo APC with restricting HLA allele loaded with WT1 peptide: 1%

## C[C@@H](O)[C@H](NC(=O)[C@@H](NC(=O)[C@H](Cc1c[nH]cn1)NC(=O)[C@H](CC(N)=O)NC(=O)[C@H](CC(=O)O)NC(=O)[C@H](CO)NC(=O)[C@H](CCC(=O)O)NC(=O)[C@H](Cc1ccc(O)cc1)NC(=O)CN)[C@@H](C)O)C(=O)O [SEQ ID NO: 178] (H-GYESDNHTT-OH; N-terminus and C-terminus assumed)
[1]; HLA allele A0101
  Cytotoxic CTL response, % vs WT1- autologous APC: 0%
[1]; HLA allele B3501
  Cytotoxic CTL response, % vs WT1- autologous APC: 0%
[2]; HLA allele A0101
  Cytotoxic CTL response, % vs WT1 peptide loaded autologous APC: 27%
[2]; HLA allele B3501
  Cytotoxic CTL response, % vs WT1 peptide loaded autologous APC: 35%
[3]; HLA allele A0101
  Cytotoxic CTL response, % vs WT1- leukemia: 0%
[4]; HLA allele A0101
  Cytotoxic CTL response, % vs WT1+ leukemia: 33%
[5]; HLA allele A0101
  Cytotoxic CTL response, % vs WT1- allo APC with restricting HLA allele: 0%
[5]; HLA allele B3501
  Cytotoxic CTL response, % vs WT1- allo APC with restricting HLA allele: 0%
[6]; HLA allele A0101
  Cytotoxic CTL response, % vs WT1+ allo APC with restricting HLA allele loaded with WT1 peptide: 26%
[6]; HLA allele B3501
  Cytotoxic CTL response, % vs WT1+ allo APC with restricting HLA allele loaded with WT1 peptide: 23%

## CC(C)C[C@H](NC(=O)[C@H](CS)NC(=O)CNC(=O)[C@@H]1CCCN1)C(=O)N[C@@H](CCC(N)=O)C(=O)N[C@@H](CCC(N)=O)C(=O)N1CCC[C@H]1C(=O)N[C@@H](CCC(=O)O)C(=O)N[C@@H](CCC(N)=O)C(=O)O [SEQ ID NO: 148] (H-PGCLQQPEQ-OH; N-terminus and C-terminus assumed)
[1]; HLA allele A0201
  Cytotoxic CTL response, % vs WT1- autologous APC: 6%
[1]; HLA allele B4701
  Cytotoxic CTL response, % vs WT1- autologous APC: 6%
[2]; HLA allele A0201
  Cytotoxic CTL response, % vs WT1 peptide loaded autologous APC: 54%
[2]; HLA allele B4701
  Cytotoxic CTL response, % vs WT1 peptide loaded autologous APC: 54%
[3]; HLA allele A0201
  Cytotoxic CTL response, % vs WT1- leukemia: 5%
[4]; HLA allele A0201
  Cytotoxic CTL response, % vs WT1+ leukemia: 19%
[5]; HLA allele A0201
  Cytotoxic CTL response, % vs WT1- allo APC with restricting HLA allele: 7%
[5]; HLA allele B4701
  Cytotoxic CTL response, % vs WT1- allo APC with restricting HLA allele: 1%
[6]; HLA allele A0201
  Cytotoxic CTL response, % vs WT1+ allo APC with restricting HLA allele loaded with WT1 peptide: 27%
[6]; HLA allele B4701
  Cytotoxic CTL response, % vs WT1+ allo APC with restricting HLA allele loaded with WT1 peptide: 25%

## CSCC[C@H](NC(=O)[C@H](CCC(N)=O)NC(=O)[C@@H](N)CC(N)=O)C(=O)N[C@@H](CC(N)=O)C(=O)N[C@@H](CC(C)C)C(=O)NCC(=O)N[C@@H](C)C(=O)N[C@H](C(=O)N[C@@H](CC(C)C)C(=O)O)[C@@H](C)O [SEQ ID NO: 172] (H-NQMNLGATL-OH; N-terminus and C-terminus assumed)
[1]; HLA allele A2402
  Cytotoxic CTL response, % vs WT1- autologous APC: 4%
[2]; HLA allele A2402
  Cytotoxic CTL response, % vs WT1 peptide loaded autologous APC: 9%
[3]; HLA allele A2402
  Cytotoxic CTL response, % vs WT1- leukemia: 1%
[4]; HLA allele A2402
  Cytotoxic CTL response, % vs WT1+ leukemia: 17%
[5]; HLA allele A2402
  Cytotoxic CTL response, % vs WT1- allo APC with restricting HLA allele: 0%
[6]; HLA allele A2402
  Cytotoxic CTL response, % vs WT1+ allo APC with restricting HLA allele loaded with WT1 peptide: 2%

## C[C@H](NC(=O)[C@H](CCC(N)=O)NC(=O)[C@H](CO)NC(=O)CNC(=O)[C@@H](NC(=O)[C@H](CS)NC(=O)[C@H](CO)NC(=O)[C@H](CC(=O)O)NC(=O)[C@@H](N)[C@@H](C)O)[C@@H](C)O)C(=O)O [SEQ ID NO: 168] (H-TDSCTGSQA-OH; N-terminus and C-terminus assumed)
[1]; HLA allele B3802
  Cytotoxic CTL response, % vs WT1- autologous APC: 0%
[1]; HLA allele B4402
  Cytotoxic CTL response, % vs WT1- autologous APC: 1%
[2]; HLA allele B3802
  Cytotoxic CTL response, % vs WT1 peptide loaded autologous APC: 88%
[2]; HLA allele B4402
  Cytotoxic CTL response, % vs WT1 peptide loaded autologous APC: 36%
[3]; HLA allele B4402
  Cytotoxic CTL response, % vs WT1- leukemia: 1%
[4]; HLA allele B4402
  Cytotoxic CTL response, % vs WT1+ leukemia: 56%
[5]; HLA allele B3802
  Cytotoxic CTL response, % vs WT1- allo APC with restricting HLA allele: 1%
[5]; HLA allele B4402
  Cytotoxic CTL response, % vs WT1- allo APC with restricting HLA allele: 0%
[6]; HLA allele B3802
  Cytotoxic CTL response, % vs WT1+ allo APC with restricting HLA allele loaded with WT1 peptide: 53%
[6]; HLA allele B4402
  Cytotoxic CTL response, % vs WT1+ allo APC with restricting HLA allele loaded with WT1 peptide: 88%
